pIC50: −log10 of the molar value.
Tests used:
[1] = test system: purified bovine brain tubulin; assay: Tubulin polymerisation assay (turbidimetric, 340 nm); format: biochemical
Method: Tubulin polymerisation was investigated using a turbidimetric assay which determines the light scattering by microtubules (absorbance at 340 nm) that is proportional to the microtubule polymer concentration.
Tubulin polymerisation was monitored with purified bovine tubulin using the BK006 kit supplied by Cytoskeleton Inc. (Denver, CO, USA), carried out following the manufacturer’s instructions with the standard assay conditions. Purified (>99%) bovine brain tubulin (3 mg/mL) in a buffer containing PIPES (80 mM, pH 6.9), EGTA (0.5 mM), MgCl2 (2 mM), GTP (1 mM) and glycerol (10%) was incubated at 37 °C in the presence of either vehicle (2% (v/v) ddH2O) or paclitaxel (10 µM), CA-4 (10 μM) or 33 (10 and 30 µM). The effect on tubulin assembly was monitored turbidimetrically at 340 nm in a Spectramax 340 PC spectrophotometer (Molecular Devices, Sunnyvale, CA, USA), with the light scattered depending on the concentration of polymerised microtubules formed. The absorbance was measured at 30 s intervals for 60 min.
Figure 7 Effect of β-lactam compound 33 (10 and 30 µM) and paclitaxel (10 µM) on in vitro tubulin polymerisation. Purified bovine tubulin and GTP were mixed in a 96-well plate. Compounds were added and the reaction was started by warming the solution from 4 to 37 °C. Ethanol (1% v/v) was used as a vehicle control. The effect on tubulin assembly was monitored in a Spectramax 340PC spectrophotometer at 340 nm at 30 s intervals for 30 min at 37 °C. […] Each experiment was performed in duplicate.

[2] = AlamarBlue cell viability assay, non-tumourigenic cells; format: cell-based, human; settings: human, HEK-293T cells (non-tumourigenic), 1 μM
Method: (§1) The cytotoxicity of the potent β-lactam 33 was investigated in the non-tumourigenic HEK-293T cell line (normal human embryonic kidney) at 72 h. […] For example, the cell viability of HEK cells at 1 μM was 88% in contrast to the cell viability of 36% for MCF-7 cells at 1 μM.
(§2) Cells were seeded at a density of 5 × 10^3 cells/well (MCF-7 and MDA-MB-231) and 1 × 10^4 cells/well (HEK-293T) in 96-well plates (200 μL per well). After 24 h, cells were then treated with medium alone, with vehicle (1% ethanol (v/v)) or with CA-4 or β-lactam compounds at 1 μM and 10 μM concentrations. […] Cell proliferation for MCF-7 cells was analysed with the AlamarBlue assay (Invitrogen Corp.) as previously described by us. […] Fluorescence results were obtained with a 96-well fluorimeter with excitation at 530 nm and emission at 590 nm with results recorded as percentage viability relative to vehicle control (100%). […]
(§3) Figure 4 Antiproliferative activity of 3-fluoro β-lactams on MCF-7, MDA-MB-231, Hs578T and Hs578T isogenic subclone Hs578T(i)8 breast cancer cells and non-tumourigenic HEK-293T cells. […] Cell viability was expressed as a percentage of vehicle control (ethanol 1% (v/v))-treated cells. […] Cell viability was expressed as a percentage of vehicle control (ethanol 1% (v/v))-treated cells and was measured by AlamarBlue assay (average of three independent experiments). […]

HEK-293T cells = assay: as above; format: cell-based, human; settings: Homo sapiens, 72 h
Method: as §1, §2, §3

Structure (SMILES): COc1ccc(C2C(F)C(=O)N2c2cc(OC)c(OC)c(OC)c2)cc1F (centres unmarked) [Compound 33, 3-Fluoro-4-(3-fluoro-4-methoxyphenyl)-1-(3,4,5-trimethoxyphenyl)azetidin-2-one]
- reduction in the Vmax of tubulin polymerisation compared to the vehicle ([1]; 10 μM): 3.5 fold
- reduction in the Vmax of tubulin polymerisation compared to the vehicle ([1]; 30 µM): 4 fold
- effect on tubulin polymerisation ([1]; paclitaxel 10 µM, 33 10 and 30 µM): inhibited tubulin polymerisation
- viability at 72 h, 1 µM [2]: 88%
- pIC50 (HEK-293T cells): < 4.30

— PMC9501633, “Synthesis, Characterisation and Mechanism of Action of Anticancer 3-Fluoroazetidin-2-ones” (Pharmaceuticals, 2022)
